In patent publication US20170295783A1, “COMPOSITIONS AND METHODS TO SELECTIVELY CONTROL SPECIES” (STEPHEN F. AUSTIN STATE UNIVERSITY, priority 2014, published 2017):

Tests used:
[1] = system: human tumor cells or normal cells; details: Li, et al., 2013; cited from earlier work
[2] = system: T. sebifera seedlings; assay: Droplet test and foliar spray of fractions on Chinese tallow seedlings; set-up: species or system Triadica sebifera; details: in vivo
Excerpt: The leaf surfaces of the experimental plants were checked daily for two weeks by a ×60 portable microscope linked to an iPhone™.

[3] = system: Giant Salvinia; assay: Leaf-blade droplet bioassay on giant salvinia; format: in vivo, Salvinia molesta; details: for Activity against Giant Salvinia: 8 μL of 1% solution on lower leaf surface
Procedure: The three plants in the first container served as control without any treatment, three plants in the second container were treated with 1% DMSO, three plants in the third container were treated with 5% DMSO, three plants in the fourth container were treated with 0.5% Dyne-Amic®, and the plants in each of the other four containers were treated with each of the four testing isolates, respectively. For each of the three plant in the 0.5% Dyne-Amic® treatment, 8 μL of 0.5% Dyne-Amic® was applied on the lower surface of each of the two mature leaf blades close to the terminal bud by pipet and 8 μL of 0.5% Dyne-Amic® was applied on the upper surface (with trichomes) of each of the two other mature leaf blades close to the terminal bud by pipet. For all three plants in each of the DMSO or testing isolates treatment containers, 8 μL of each experimental solution was applied on the lower surface of each of the two mature leaf blades close to the terminal bud by pipet.

[4] = system: A. palmeri; assay: Leaf droplet bioassay on A. palmeri seedlings; format: in vivo, Amaranthus palmeri; details: 10 μL 0.5% glyphosate
Procedure: Bioassays: The experimental plants were 3-week-old A. palmeri seedlings germinated from the seeds collected from the above described glyphosate-resistant plants. The seedlings were grown in pots with Miracle Grow Potting Mix soil in the greenhouse (30° C. during the day time and 20° C. at night). The intact seedling plants of 3-week old Q. texana and 2-month-old L. styraciflua grown in pots in greenhouse were also tested in this experiment. […] The leaf surfaces of the experimental plants were checked daily for two weeks by a ×60 portable microscope linked to an iPhone™.

CC(=O)/C=C/[C@H]1C(C)=C[C@H](O)CC1(C)C
cytotoxicity against human tumor cells or normal cells [1]: did not show any cytotoxicity

COc1c(OC)c(OC)c2oc(=O)ccc2c1OC [5,6,7,8-Tetramethoxycoumarin, 5,6,7,8-tetramethoxycoumarin]
endocidal activity in the droplet test [2]: showed endocidal activity

CC(=O)/C=C/C1=C(C)C[C@@H](O)CC1(C)C [compound 1, (+)-3-Hydroxy-β-ionone]
cytotoxicity against human tumor cells or normal cells [1]: did not show any cytotoxicity
Activity against Giant Salvinia [3]: Potent activity
leaves dead by the end of experiment (of six) ([3]; 8 μL/leaf, 1% solution): two leaves were dead
time to significant injury of the six treated leaf blades ([3]; 8 μL/leaf, 1% solution, lower surface): ≤ 12 h
time to death of lower surface contact tissues (FIG. 1) ([3]; applied on the lower surface of the leaf blade): ≤ 12 h

CC(=O)/C=C/[C@H]1C(C)=C[C@H](O)CC1(C)C [compound 2, (3R,6R,7E)-3-hydroxy-4,7-megastigmadien-9-one]
Activity against Giant Salvinia [3]: Weak activity
leaf injury during the two weeks of observation ([3]; 8 μL/leaf, 1% solution): no or slight injury

CC(=O)/C=C/[C@@]12O[C@]1(C)C[C@@H](O)CC2(C)C [compound 3, Annuionone D]
cytotoxicity against human tumor cells or normal cells [1]: did not show any cytotoxicity
Activity against Giant Salvinia [3]: No activity
leaf injury during the two weeks of observation ([3]; 8 μL/leaf, 1% solution): no or slight injury

CC(=O)/C=C/[C@@]1(O)C(C)=CC(=O)CC1(C)C [compound 4, Dehydrovomifoliol]
cytotoxicity against human tumor cells or normal cells [1]: did not show any cytotoxicity
Activity against Giant Salvinia [3]: No activity
leaf injury during the two weeks of observation ([3]; 8 μL/leaf, 1% solution): no or slight injury

O=C(O)CNCP(=O)(O)O [glyphosate]
leaf injury [4]: no injury
